In PMC9026428, “New Peptide Based Fluconazole Conjugates with Expanded Molecular Targets” (Pharmaceutics, 2022):
In brackets after ≈: the same amount, converted by molar mass.

Columns and labels:
Test in all cases: microbe, parasite or virus in culture
Candida albicans 138 = settings: 37 °C; for MIC50 / MIC90: C. albicans 138 (fluconazole-resistant clinical isolate), RPMI 1640/MOPS pH 7.0, 24 h, triplicate; for MIC50: at least 50% growth inhibition vs growth control; for MIC90: lowest concentration with no visible growth
Experimental: (§1) The assessment of antifungal potential of synthesized agents was carried out using four reference strains (C. albicans ATCC 10231, C. albicans SC5314, C. glabrata DSM […] and C. krusei DSM […]) and six clinical isolates of fluconazole-resistant C. albicans that were provided by the Hospital of Medical University of Gdansk, Poland. Moreover, four C. albicans isolates, assigned as B3, B4, Gu4 and Gu5, were used for investigation whether the synthesized fluconazole derivatives were effectively removed from the yeast cells by the drug efflux transporters, as in the case of fluconazole. These strains were kindly provided by Prof. Joachim Morschhäuser from University of Würzburg (Würzburg, Germany). Strains Gu4 and B3 were fluconazole-sensitive isolates obtained from early infection episodes, while Gu5 and B4 were the corresponding fluconazole-resistant isolates obtained from later episodes in the same patients treated with fluconazole. The lack of susceptibility of the Gu5 strain to fluconazole was a consequence of overexpression of CDR1/2 genes encoding ABC transporters, whereas the resistance of B4 strain was caused by overexpression of the MDR1 gene encoding a membrane transport protein of the major facilitator superfamily (MFS). All of these Candida spp. strains were maintained on YPD agar plates (1% (w/v) yeast extract, 2% (w/v) peptone, 2% (w/v) glucose, 2% (w/v) agar) at 30 °C for 16–24 h. For all of the assays aimed at assessing the antifungal potential of the synthesized agents, the yeasts were cultivated at 37 °C in RPMI 1640 medium (with L-glutamine, without sodium bicarbonate, Sigma-Aldrich, Darmstadt, Germany)) buffered to a pH of 7.0 with 0.165 M morpholinepropanesulfonic acid (MOPS) buffer (Sigma-Aldrich). In this study, we used the human foreskin fibroblast cell line Hs27 (ATCC CRL 1634TM) and the human endothelial cell line HUVEC (C2519A), purchased from Lonza Group AG, (Basel, Switzerland). The Hs27 cells were maintained in cell media consisting of Dulbecco’s modified Eagles medium (DMEM), (Corning, Arizona, USA) with 10% fetal bovine serum (FBS), (Corning, Port Elizabeth, South Africa), 1% penicillin/streptomycin (Sigma-Aldrich Inc., Darmstadt, Germany), and 1% L-glutamine (Corning, Arizona, USA). The human endothelial cell line was maintained in cell media consisting of Endothelial Cell Growth Medium-2 Single Quots Kit (Lonza, USA). Both cell lines were cultured in an incubator at 37 °C and 5% CO2.
(§2) Antifungal activity of the tested compounds against yeast cells was determined in 96-well plates as described in the CLSI document M27-A3 [39], with minor modifications (CLSI, 2008). […] The plates were incubated for 24 h at 37 °C. Each test was performed in triplicate. The final concentration of DMSO was ensured to be around 1% in all experiments.
(§3) For determination of minimum fungicidal concentrations (MFC), small aliquots of suspensions (around 10 μL) from each well were transferred using the pipette to YPD agar plates without inhibitors and incubated for 24 h at 37 °C.

Candida albicans Gu4 = settings: 37 °C; for MIC50 / MIC90: C. albicans Gu4 (fluconazole-sensitive isolate), RPMI 1640/MOPS pH 7.0, 24 h, triplicate; for MIC50: at least 50% growth inhibition vs growth control; for MIC90: lowest concentration with no visible growth
Experimental: as §1, §2, §3

Candida albicans 574 = settings: C. albicans 574 (fluconazole-resistant clinical isolate), RPMI 1640/MOPS pH 7.0, 24 h, 37 °C, triplicate; for MIC50: at least 50% growth inhibition vs growth control; for MIC90: lowest concentration with no visible growth
Experimental: as §1, §2, §3

Candida albicans 604 = settings: 37 °C; for MIC50 / MIC90: C. albicans 604 (fluconazole-resistant clinical isolate), RPMI 1640/MOPS pH 7.0, 24 h, triplicate; for MIC50: at least 50% growth inhibition vs growth control; for MIC90: lowest concentration with no visible growth
Experimental: as §1, §2, §3

[1] = tested on: Candida albicans ATCC 10231; settings: C. albicans ATCC 10231, 37 °C; for MIC50 / MIC90: RPMI 1640/MOPS pH 7.0, 24 h, triplicate; for MIC50: at least 50% growth inhibition vs growth control; for MIC90: lowest concentration with no visible growth
Experimental: as §1, §2, §3

Candida albicans SC 5314 = settings: C. albicans SC 5314, 37 °C; for MIC50 / MIC90: RPMI 1640/MOPS pH 7.0, 24 h, triplicate; for MIC50: at least 50% growth inhibition vs growth control; for MIC90: lowest concentration with no visible growth
Experimental: as §1, §2, §3

Candida albicans B4 = settings: 37 °C; for MIC50 / MIC90: C. albicans B4 (fluconazole-resistant, MDR1 overexpression), RPMI 1640/MOPS pH 7.0, 24 h, triplicate; for MIC50: at least 50% growth inhibition vs growth control; for MIC90: lowest concentration with no visible growth
Experimental: as §1, §2, §3

Candida albicans 247 = settings: 37 °C; for MIC50 / MIC90: C. albicans 247 (fluconazole-resistant clinical isolate), RPMI 1640/MOPS pH 7.0, 24 h, triplicate; for MIC50: at least 50% growth inhibition vs growth control; for MIC90: lowest concentration with no visible growth
Experimental: as §1, §2, §3

Candida krusei DSM 11226 = settings: C. krusei DSM 11226, 37 °C; for MIC50 / MIC90: RPMI 1640/MOPS pH 7.0, 24 h, triplicate; for MIC50: at least 50% growth inhibition vs growth control; for MIC90: lowest concentration with no visible growth
Experimental: as §1, §2, §3

[2] = tested on: Candida glabrata DSM 6128; settings: C. glabrata DSM 6128, RPMI 1640/MOPS pH 7.0, 24 h, 37 °C, triplicate; for MIC50: at least 50% growth inhibition vs growth control; for MIC90: lowest concentration with no visible growth
Experimental: as §1, §2, §3

Candida albicans Gu5 = settings: C. albicans Gu5 (fluconazole-resistant, CDR1/2 overexpression), RPMI 1640/MOPS pH 7.0, 24 h, 37 °C, triplicate; for MIC50: at least 50% growth inhibition vs growth control; for MIC90: lowest concentration with no visible growth
Experimental: as §1, §2, §3

Candida albicans B3 = settings: 37 °C; for MIC50 / MIC90: C. albicans B3 (fluconazole-sensitive isolate), RPMI 1640/MOPS pH 7.0, 24 h, triplicate; for MIC50: at least 50% growth inhibition vs growth control; for MIC90: lowest concentration with no visible growth
Experimental: as §1, §2, §3

[3] = aliquots plated on YPD agar, 24 h, lowest concentration with no colony growth

| SMILES | MIC50 (Candida albicans 138) | MIC90 (Candida albicans 138) | MIC50 (Candida albicans Gu4) | MIC90 (Candida albicans Gu4) | MIC50 (Candida albicans 574) | MIC90 (Candida albicans 574) | MIC50 (Candida albicans 604) | MIC90 (Candida albicans 604) | MIC50 [1] | MIC90 [1] | MIC50 (Candida albicans SC 5314) | MIC90 (Candida albicans SC 5314) | MIC50 (Candida albicans B4) | MIC90 (Candida albicans B4) | MIC50 (Candida albicans 247) | MIC90 (Candida albicans 247) | MIC50 (Candida krusei DSM 11226) | MIC90 (Candida krusei DSM 11226) | MIC50 [2] | MIC90 [2] | further results |
| --- | --- | --- | --- | --- | --- | --- | --- | --- | --- | --- | --- | --- | --- | --- | --- | --- | --- | --- | --- | --- | --- |
| CC[C@H](C)[C@H](NC(=O)[C@H](CCCCN)NC(=O)[C@H](CCCCN)NC(=O)[C@H](C)NC(=O)[C@H](CC(C)C)NC(=O)[C@H](C)NC(=O)[C@H](C)NC(=O)[C@H](CC(C)C)NC(=O)[C@H](C)NC(=O)[C@H](CCCCN)NC(=O)[C@H](CC(C)C)NC(=O)[C@H](CC(N)=O)NC(=O)[C@@H](NC(=O)[C@H](CCCCN)NC(=O)CNC(=O)[C@H](CC(C)C)NC(=O)[C@H](CC(C)C)NC(=O)[C@H](Cc1ccc(O)cc1)NC(=O)CNC(=O)[C@H](C)NC(=O)CCCC(=O)OC(Cn1cncn1)(Cn1cncn1)c1ccc(F)cc1F)[C@@H](C)CC)C(=O)N[C@@H](CC(C)C)C(N)=O [FLCpOH-TP10-NH2] | 45 µM (≈ 116 µg/mL) | 62 µM (≈ 160 µg/mL) | 45 µM (≈ 116 µg/mL) | 62 µM (≈ 160 µg/mL) | 45 µM (≈ 116 µg/mL) | 62 µM (≈ 160 µg/mL) | 45 µM (≈ 116 µg/mL) | 62 µM (≈ 160 µg/mL) | 15 µM (≈ 38.8 µg/mL) | 31 µM (≈ 80.1 µg/mL) | 8 µM (≈ 20.7 µg/mL) | 15 µM (≈ 38.8 µg/mL) | 62 µM (≈ 160 µg/mL) | 125 µM (≈ 323 µg/mL) | 45 µM (≈ 116 µg/mL) | 62 µM (≈ 160 µg/mL) | 62 µM (≈ 160 µg/mL) | 125 µM (≈ 323 µg/mL) | 62 µM (≈ 160 µg/mL) | 125 µM (≈ 323 µg/mL) | MFC (Candida albicans 138; C. albicans 138, aliquots plated on YPD agar, 24 h, lowest concentration with no colony growth): 250 µM (≈ 646 µg/mL); MFC (Candida albicans Gu4; C. albicans Gu4, aliquots plated on YPD agar, 24 h, lowest concentration with no colony growth): 62 µM (≈ 160 µg/mL); MFC (Candida albicans 604; C. albicans 604, aliquots plated on YPD agar, 24 h, lowest concentration with no colony growth): 250 µM (≈ 646 µg/mL); MFC [1, 3]: 62 µM (≈ 160 µg/mL); MFC (Candida albicans SC 5314; [3]): 31 µM (≈ 80.1 µg/mL); MFC (Candida albicans B4; C. albicans B4, aliquots plated on YPD agar, 24 h, lowest concentration with no colony growth): 125 µM (≈ 323 µg/mL); MFC (Candida albicans 247; C. albicans 247, aliquots plated on YPD agar, 24 h, lowest concentration with no colony growth): 250 µM (≈ 646 µg/mL); MFC (Candida krusei DSM 11226; [3]): 250 µM (≈ 646 µg/mL); MIC50 (Candida albicans Gu5): 62 µM (≈ 160 µg/mL); MIC90 (Candida albicans Gu5): 125 µM (≈ 323 µg/mL); MIC50 (Candida albicans B3): 31 µM (≈ 80.1 µg/mL); MIC90 (Candida albicans B3): 62 µM (≈ 160 µg/mL); MFC (Candida albicans B3; C. albicans B3, aliquots plated on YPD agar, 24 h, lowest concentration with no colony growth): 62 µM (≈ 160 µg/mL) |
| O=C(O)CCCC(=O)OC(Cn1cncn1)(Cn1cncn1)c1ccc(F)cc1F [FLCpOH] | >250 µM | >250 µM | >250 µM | >250 µM | >250 µM | >250 µM | >250 µM | >250 µM | >250 µM | >250 µM | >250 µM | >250 µM | >250 µM | >250 µM | >250 µM | >250 µM | >250 µM | >250 µM | >250 µM | >250 µM | MIC50 (Candida albicans Gu5): >250 µM; MIC90 (Candida albicans Gu5): >250 µM; MIC50 (Candida albicans B3): >250 µM; MIC90 (Candida albicans B3): >250 µM |
